Data set [1] deals with T1, HDAC8 (Homo sapiens, UniProt Q9BY41).
T1 construct: purchased BPS bioscience
T1 sequence (Q9BY41 1-377): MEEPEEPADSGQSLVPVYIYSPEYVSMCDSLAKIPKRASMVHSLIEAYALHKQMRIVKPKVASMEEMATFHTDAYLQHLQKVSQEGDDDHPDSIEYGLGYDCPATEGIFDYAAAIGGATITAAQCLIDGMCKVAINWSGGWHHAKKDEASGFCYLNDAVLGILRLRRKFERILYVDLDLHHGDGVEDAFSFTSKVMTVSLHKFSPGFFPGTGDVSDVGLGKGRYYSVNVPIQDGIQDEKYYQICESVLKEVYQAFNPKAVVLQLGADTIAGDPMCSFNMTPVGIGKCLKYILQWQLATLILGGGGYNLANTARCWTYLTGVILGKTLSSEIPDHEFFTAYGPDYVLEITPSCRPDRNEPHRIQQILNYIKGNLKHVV
Kind of data set: HDAC8 inhibitory activity analysis (in vitro), RFU analysis, HDAC Fluorogenic assay kit. It is filed as biochemical.
Experimental: The compound of the Example was diluted to 1 mM (1% DMSO concentration) using DMSO to obtain a final concentration of 10 µM, and prepared by diluting 1/10 with assay buffer. In a 96-well black round-bottom plate, 5 µL of the diluted compound of the Example, 5 µL of the diluted HDAC substrate 2A, 5 µL of BSA (1 mg/mL), 5 µL of the HDAC8 enzyme diluted to an appropriate concentration, and 30 µL of assay buffer were added, and the enzyme reaction was performed at 37°C for 30 minutes. […] Afterwards, 50 µL of 2X HDAC developer was added to each well. After reacting for 15 minutes at room temperature, the fluorescence values at excitation wavelengths of 350-380 nm and emission wavelengths of 440-460 nm were measured using a microplate reader (Synergy Neo).

Data set [2] has as its target T1, HDAC8. Put plainly: Selective HDAC inhibition, HDAC Fluorogenic assay kit. It counts as biochemical.
Experimental: (§2) For analysis, HDAC substrate 3 was diluted in buffer to a concentration of 200 µM and used in HDAC 1, 2, 3, 6, and 10 assays, HDAC substrate 2A was diluted in buffer to a concentration of 200 µM and used in HDAC 4, 7, 9, and 11 assays, HDAC substrate 2A was diluted in buffer to a concentration of 20 µM and used in HDAC 8 assays. For the HDAC 11 assay, a dedicated buffer included in the kit was used separately, and the same buffer was used for the remaining assays. The compound of the Example was diluted to 1 mM (1% DMSO concentration) using DMSO to obtain a final concentration of 10 µM, and prepared by diluting 1/10 with assay buffer. In a 96-well black round-bottom plate, 5 µL of the diluted compound of the Example, 5 µL of the diluted HDAC substrate, 5 µL of BSA (1 mg/ml), 5 µL of the HDAC enzyme diluted to the appropriate concentration, and 30 µL of assay buffer were added, and the enzyme reaction was performed at 37°C for 30 minutes. […] Afterwards, 50 µL of 2X HDAC developer was added to each well. After reacting for 15 minutes at room temperature, the fluorescence values at excitation wavelengths of 350-380 nm and emission wavelengths of 440-460 nm were measured using a microplate reader (Synergy Neo).
Data set [3] deals with PC-3 prostate cancer cells. Put plainly: Prostate cancer cell growth inhibition, CCK-8 assay. It is filed as cell-based, human. The following applies: PC-3 cells, result in words. The method, then:
PC-3, a human-derived prostate cancer cell line, was cultured with RPMI1640 (10% fetal bovine serum, 1% Penicillin Streptomycin) culture medium at 37°C, 5% CO2 condition. All cells in the experiment were subcultured when they reached a confluency of approximately 80% to 90%, and only cells that had not passed 20 passages were used.
After culturing, 10 µL CCK-8 reagent was added and the absorbance was measured after 1 hour. The absorbance was measured at 450 nm using a microplate reader [BMG Labtech (Offenburg, Germany)].
(In general: Formazan colour is commonly taken as a measure of viable cells.)

Another data set relates to Liver cancer cells Huh-7. Kind of data set: Liver cancer cell growth inhibition, CellTiter-Glo Luminescent Cell Viability Assay. It counts as cell-based. The following applies: Huh-7 cells, various concentrations, day 1, FIG. 6; result in words. The protocol:
In addition, an analysis of liver cancer growth inhibitory activity was performed. Liver cancer cells Huh-7 cells were dispensed in a 96-well plate at 1 × 10^4 cells/ml, and after 20 hours, PCI34051, Example 27, and Example 35 were added at various concentrations, and cultured for 24 and 48 hours at 37°C in a 5% CO2 atmosphere. After culturing, 100 µl CellTiter-Glo Luminescent Cell Viability Assay reagent was added and the luminescence signal was measured after 0.5-1 hour. The luminescence signal was measured using IVIS [PerkinElmer, (Waltham, USA)].
(ATP-based viability assays read luminescence as a measure of living cells.)

Another data set deals with PC-3 cell lines. Put plainly: Prostate cancer model, PC-3 cell lines subcutaneously transplanted, tumor volume and weight. Particulars: result in words. It counts as in vivo, nude mice. The protocol: (§1) A prostate cancer model was established by subcutaneously transplanting PC-3 cell lines into nude mice, and the mice were divided into two groups (group 1: vehicle administration group (10% DSMO, 30% PEG400, 60% DW), group 2: 50 mg/kg Example 27 compound administration group). The drug was administered orally once a day for 12 times. To evaluate the therapeutic efficacy, tumors were […] before drug administration and on days 3, 6, 8, 10, 12, and 14 after drug administration, and tumor volumes were measured. Tumor volume (mm^3) was calculated as follows (tumor volume (mm^3) = (A X B^2)/2, where A = tumor long axis, B = tumor short axis), and the results are shown in FIG. 2.
Meanwhile, on day 12 of drug administration, the tumor was removed and its weight was measured, the results are shown in FIG. 3, and a photograph of the removed tumor was taken and shown in FIG. 4.

A short description of data set [4]: Body weight during drug administration, prostate cancer model. It is filed as in vivo, nude mice. The following applies: 50 mg/kg, during the drug administration period, PC-3 model, FIG. 5; result in words. The protocol:
as §1

Data set [5] in a line: Body weight during drug administration, liver cancer model. It counts as in vivo, nude mice. Particulars: 50 mg/kg, during the drug administration period, Huh-7 model, FIG. 7D; result in words. The method, then:
In addition, a liver cancer model was established by subcutaneously transplanting Huh-7 cell lines into nude mice. After establishing the liver cancer model, the mice were divided into two groups (group 1: vehicle administration group, group 2: 50 mg/kg Example 27 compound administration group). The drug was administered once a day for 12 times. To evaluate therapeutic efficacy, tumor volume was measured before drug administration and on days 4, 7, 10, 13, and 15 after drug administration. Tumor volume (mm^3) was calculated as follows (tumor volume (mm^3) = (A X B^2)/2, where A = tumor long axis, B = tumor short axis). Body weight was measured before administration and on days 4, 7, 10, 13, and 15 after drug administration during the drug administration period. Tumor was excised on day 15 after drug treatment and body weight was measured.

In the next data set the target is HDAC4 (Homo sapiens, UniProt P56524). Kind of data set: Selective HDAC inhibition, HDAC Fluorogenic assay kit. Particulars: read-out: HDAC4 enzyme activity (%).
Another data set addresses HDAC9 (Homo sapiens, UniProt Q9UKV0). The description is as above. Particulars: read-out: HDAC9 enzyme activity (%).
Another data set addresses T2, HDAC11 (Homo sapiens, UniProt Q96DB2).
T2 sequence (Q96DB2 1-347): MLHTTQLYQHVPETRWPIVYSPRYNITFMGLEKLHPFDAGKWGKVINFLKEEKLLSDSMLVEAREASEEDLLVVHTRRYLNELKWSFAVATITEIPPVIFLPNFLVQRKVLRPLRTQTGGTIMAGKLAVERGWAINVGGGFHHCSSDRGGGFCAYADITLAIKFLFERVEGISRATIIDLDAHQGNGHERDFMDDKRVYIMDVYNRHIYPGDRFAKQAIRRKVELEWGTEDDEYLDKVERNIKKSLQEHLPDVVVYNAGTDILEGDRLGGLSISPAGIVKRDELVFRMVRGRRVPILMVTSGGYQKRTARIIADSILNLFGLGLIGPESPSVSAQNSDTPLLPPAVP
The description is as above. The following applies: read-out: HDAC11 enzyme activity (%).

Each structure is given as a SMILES string.

Data on one molecule can be found in patent EP4501917A1, “3,4-DIHYDROQUINOXALINE-2-CARBOXIMIDE DERIVATIVE COMPOUND AND PHARMACEUTICAL COMPOSITION COMPRISING SAME FOR PREVENTING OR TREATING CANCER DISEASE” (Daegu-Gyeongbuk Medical Innovation Foundation, priority 2022, dated 2023).

HDAC4, sequence (P56524 whole entry): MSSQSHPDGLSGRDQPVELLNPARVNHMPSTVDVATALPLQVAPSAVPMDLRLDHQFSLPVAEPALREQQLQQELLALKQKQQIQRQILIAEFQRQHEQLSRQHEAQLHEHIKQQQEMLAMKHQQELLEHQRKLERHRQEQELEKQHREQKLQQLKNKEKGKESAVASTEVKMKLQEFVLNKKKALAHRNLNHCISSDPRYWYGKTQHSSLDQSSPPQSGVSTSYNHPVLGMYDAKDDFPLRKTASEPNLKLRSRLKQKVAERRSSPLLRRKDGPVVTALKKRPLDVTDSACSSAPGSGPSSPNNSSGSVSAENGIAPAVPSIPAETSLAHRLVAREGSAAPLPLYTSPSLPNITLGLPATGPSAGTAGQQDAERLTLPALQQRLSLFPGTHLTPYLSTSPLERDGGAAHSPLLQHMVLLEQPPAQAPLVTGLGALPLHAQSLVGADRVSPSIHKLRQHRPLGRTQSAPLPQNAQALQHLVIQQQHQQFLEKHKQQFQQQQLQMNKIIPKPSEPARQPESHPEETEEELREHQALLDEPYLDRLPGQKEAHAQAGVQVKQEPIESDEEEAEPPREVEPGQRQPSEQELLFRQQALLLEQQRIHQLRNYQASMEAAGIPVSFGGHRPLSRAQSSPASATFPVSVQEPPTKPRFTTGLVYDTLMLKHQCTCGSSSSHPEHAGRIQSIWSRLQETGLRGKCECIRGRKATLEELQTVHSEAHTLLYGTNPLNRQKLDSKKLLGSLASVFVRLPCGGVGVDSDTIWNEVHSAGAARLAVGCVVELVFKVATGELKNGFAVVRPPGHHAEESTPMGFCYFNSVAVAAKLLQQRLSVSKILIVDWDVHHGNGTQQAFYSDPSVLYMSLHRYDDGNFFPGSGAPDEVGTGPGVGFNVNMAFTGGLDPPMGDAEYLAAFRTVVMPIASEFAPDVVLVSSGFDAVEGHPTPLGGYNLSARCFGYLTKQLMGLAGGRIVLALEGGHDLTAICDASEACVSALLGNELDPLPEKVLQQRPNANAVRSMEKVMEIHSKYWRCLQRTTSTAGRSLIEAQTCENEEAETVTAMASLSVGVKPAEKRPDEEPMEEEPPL
HDAC9, sequence (Q9UKV0 whole entry): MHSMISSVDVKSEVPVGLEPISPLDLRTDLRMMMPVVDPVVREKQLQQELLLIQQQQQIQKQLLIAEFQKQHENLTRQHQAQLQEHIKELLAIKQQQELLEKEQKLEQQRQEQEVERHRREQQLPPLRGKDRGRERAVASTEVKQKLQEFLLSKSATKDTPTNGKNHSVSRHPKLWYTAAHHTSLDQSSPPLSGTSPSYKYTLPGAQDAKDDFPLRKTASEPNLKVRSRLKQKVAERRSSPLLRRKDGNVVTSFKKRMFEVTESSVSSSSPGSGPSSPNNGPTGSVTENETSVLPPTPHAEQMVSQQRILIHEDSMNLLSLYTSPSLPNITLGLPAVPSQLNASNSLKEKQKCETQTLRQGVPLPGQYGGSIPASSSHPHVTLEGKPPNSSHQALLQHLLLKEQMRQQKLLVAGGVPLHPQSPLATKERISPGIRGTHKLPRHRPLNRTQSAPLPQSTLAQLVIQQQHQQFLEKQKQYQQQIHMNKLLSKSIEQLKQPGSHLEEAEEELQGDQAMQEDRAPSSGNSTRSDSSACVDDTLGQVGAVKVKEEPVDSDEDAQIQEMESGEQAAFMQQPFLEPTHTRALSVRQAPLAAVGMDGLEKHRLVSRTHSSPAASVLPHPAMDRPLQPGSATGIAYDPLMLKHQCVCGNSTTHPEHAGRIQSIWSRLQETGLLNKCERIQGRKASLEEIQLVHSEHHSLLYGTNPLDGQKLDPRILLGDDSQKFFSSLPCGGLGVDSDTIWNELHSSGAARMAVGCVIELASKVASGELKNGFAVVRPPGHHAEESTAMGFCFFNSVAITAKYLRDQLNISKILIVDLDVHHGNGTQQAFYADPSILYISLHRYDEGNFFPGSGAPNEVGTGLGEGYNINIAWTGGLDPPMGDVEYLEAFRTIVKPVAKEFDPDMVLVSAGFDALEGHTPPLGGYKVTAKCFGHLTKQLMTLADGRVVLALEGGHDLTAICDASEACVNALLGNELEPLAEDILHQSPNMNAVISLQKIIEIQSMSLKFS
Experimental for HDAC11: as §2
Experimental for HDAC4: as §2
Experimental for HDAC9: as §2

Take `Cc1cc2nc(C(=O)NCCc3c[nH]c4ccc(O)cc34)c(=O)n(C[C@H](O)[C@H](O)[C@H](O)CO)c2cc1C` [Example 27, N-(2-(5-hydroxy-1H-indol-3-yl)ethyl)-6,7-dimethyl-3-oxo-4-((2S,3S,4R)-2,3,4,5-tetrahydroxypentyl)-3,4-dihydroquinoxaline-2-carboxamide]: the “RFU (%)” value on HDAC8 [1] (compound final concentration 10 µM, HDAC substrate 2A 20 µM, positive control (1% DMSO) set to 100, lower = more inhibition) is recorded as 7.62%. The “inhibitory activity against HDAC8” value on HDAC8 [1] (result in words, summary of Table 2, 10 µM) is listed as “inhibitory activity similar to TSA or SAHA”. Moreover, the remaining activity at 10 µM at HDAC8 [2] (final concentration 10 µM, HDAC substrate 2A 20 µM, positive control (1% DMSO) set to 100, read-out: HDAC8 enzyme activity (%)) is 14.1%; on HDAC4, 98.2%; on HDAC9, 66.5%; on HDAC11, 97.3%. On HDAC8 [2] (result in words, HDAC8 versus HDAC1, 2, 3, 4, 6, 7, 9, 10, 11, summary of Table 3), the “selective inhibitory effect on HDAC8” value was “selective and excellent inhibitory activity only against HDAC8”. Besides, the “cancer cell viability inhibition rate” value in data set [3] (compared with PCI-34051, FIG. 1) is “superior to that of PCI-34051”. Also, the cell viability result was “effectively reduced the viability of prostate cancer cells in a concentration- and time-dependent manner” in [3] (various concentrations, 24 hours and 48 hours, FIG. 1); “concentration-dependent inhibition of cancer cell viability” with Liver cancer cells Huh-7. Moreover, in the data set with PC-3 cell lines (50 mg/kg orally once a day for 12 times, up to day 14, *p<0.05 compared with vehicle, FIG. 2), the tumor volume result is given as “significantly reduced tumor volume growth rate compared to group 1”. In the data set with PC-3 cell lines (50 mg/kg orally once a day, tumor removed on day 12, ***p<0.0005 compared with vehicle, FIG. 3), the tumor weight result is listed as “vehicle administration group (group 1) had a significantly higher tumor weight”. The “body weight of the mice” value in data set [4] is “no rapid weight loss was confirmed”. The body weight result in data set [5] is reported as “No rapid weight loss was observed”.
